Values of other authors, collected in patent US6444676B1, “Use of PARP inhibitors in the treatment of glaucoma” (priority 1999, dated 2002).

How the values were obtained:
neuronal apoptosis = conditions: induced by various injuries including amino acid excitotoxicity
rat retina = conditions: at 3 mM or higher concentrations, administered via intracameral infusion

Compound	prevention of neuronal apoptosis (neuronal apoptosis)	ischemia/reperfusion damage and DNA fragmentation in rat retina (rat retina)
Oc1cccc2c(O)nccc12 [1,5-dihydroxyisoquinoline]	prevent neuronal apoptosis	
NC(=O)c1cccc(N)c1 [3-aminobenzamide]	prevent neuronal apoptosis	reduce ischemia/reperfusion damage and DNA fragmentation
Nc1cccc2c(=O)[nH][nH]c(=O)c12 [3-aminophtalhydrazide]	prevent neuronal apoptosis	
NC(=O)c1ccccc1 [benzamide]	prevent neuronal apoptosis	
